Among the test systems are SK-OV-3; HOP-92; UACC-62; TK-10; UO-31; OVCAR-3; NCI-H460; SR; IGROV-1; SF-539; NCI-H23; HT-29; HL-60; SNB-19; MOLT-4; RPMI-8226; CAKI-1; SW-620; SK-MEL-2; OVCAR-5.
Holding throughout (assay): growth of human tumour cells (NCI), 48 h

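Values below derive from 48-hour exposures of cells grown in 96-well plates, with endpoints linearly interpolated between the two concentrations bracketing the appropriate inhibition level. GI50 marks 50% less growth.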 Activity calls are given as the source filed them. Rule as the data show it: active = GI50 up to about 1.1 µM and inactive = higher.

Consider `Cc1c(OC(C)C(=O)O)ccc2c(-c3ccccc3)cc(=O)oc12` (stereo not drawn), for which the GI50 with SK-OV-3, in the assay with HOP-92, in the assay on UACC-62, in the assay on TK-10, in the assay with UO-31 and with OVCAR-3 was > 100 µM (inactive) in each case. Further, the GI50 with NCI-H460, in the assay with SR, in the assay on IGROV-1, with SF-539, with NCI-H23 and in the assay with HT-29 was > 100 µM (inactive) in each case. For the same molecule, the GI50 in the assay with HL-60, in the assay with SNB-19, with MOLT-4, in the assay on RPMI-8226, with CAKI-1 and in the assay with SW-620 was > 100 µM (inactive) each time.
Turning to `ON(Cc1ccccc1)C(=S)c1ccccc1`, the GI50 is 14.7 µM (inactive) with SK-OV-3; 50.7 µM (inactive) in the assay on HOP-92; 2.43 µM (inactive) with UACC-62; 21.8 µM (inactive) with TK-10; 4.03 µM (inactive) with UO-31; 2.62 µM (inactive) with SK-MEL-2. The GI50 was 2.72 µM (inactive) in the assay with OVCAR-3; 1.93 µM (inactive) with NCI-H460; 0.481 µM (active) with SR; 5.86 µM (inactive) with IGROV-1; 5.43 µM (inactive) in the assay with SF-539; 3.62 µM (inactive) in the assay on NCI-H23. Also, the GI50 in the assay on OVCAR-5 is 17.9 µM (inactive); in the assay with HT-29, 2.88 µM (inactive); with HL-60 it was 0.927 µM (active); in the assay on SNB-19, 17.7 µM (inactive); with MOLT-4 it was 1.09 µM (active); in the assay on RPMI-8226 it was 2.77 µM (inactive). For the same molecule, the GI50 with SW-620 was 4.23 µM (inactive).
Turning to `O=C1C(Cl)C2(CC(/C=C/c3cccs3)=NN2c2cccc(S(=O)(=O)O)c2)N1c1nc2ccccc2s1` (stereo not drawn), the GI50 was 1.79 µM (inactive) in the assay with HOP-92; 59.6 µM (inactive) with UACC-62; 19.3 µM (inactive) in the assay on TK-10; 10.9 µM (inactive) in the assay on UO-31; > 100 µM (inactive) in the assay on SK-MEL-2; 31.1 µM (inactive) with NCI-H460. Besides, the GI50 was 29.9 µM (inactive) with SR; 21.1 µM (inactive) in the assay on IGROV-1; > 100 µM (inactive) in the assay with SF-539; 27.8 µM (inactive) in the assay on NCI-H23; > 100 µM (inactive) with OVCAR-5; 73.5 µM (inactive) with HT-29. Also, the GI50 with HL-60 was 64.6 µM (inactive); in the assay with SNB-19, > 100 µM (inactive); in the assay on MOLT-4, 31.5 µM (inactive); in the assay with RPMI-8226, 47 µM (inactive); with CAKI-1, 37.1 µM (inactive); with SW-620, > 100 µM (inactive).
For the molecule `C#CCN(Cc1ccc2nc(-c3ccccc3)c(Cl)nc2c1)c1ccc(F)cc1`, the GI50 is 47 µM (inactive) with HOP-92; > 100 µM (inactive) in the assay with UACC-62; > 100 µM (inactive) in the assay on TK-10; 80.7 µM (inactive) in the assay on UO-31; > 100 µM (inactive) in the assay with SK-MEL-2; > 100 µM (inactive) with OVCAR-3. Also, the GI50 with NCI-H460 was > 100 µM (inactive); in the assay with SR, 45.8 µM (inactive); with IGROV-1, > 100 µM (inactive); in the assay on SF-539, > 100 µM (inactive); in the assay on NCI-H23, 71.6 µM (inactive); in the assay with OVCAR-5 it was > 100 µM (inactive). The GI50 was 61.9 µM (inactive) in the assay with HT-29; 15.1 µM (inactive) in the assay with HL-60; > 100 µM (inactive) with SNB-19; 0.767 µM (active) in the assay on MOLT-4; 39.7 µM (inactive) in the assay with RPMI-8226; > 100 µM (inactive) in the assay with CAKI-1. For the same molecule, the GI50 in the assay on SW-620 is > 100 µM (inactive).
With `CC1CC(c2ccccc2)=Nc2ccccc2S1` (stereo not drawn), the GI50 in the assay with SK-OV-3, with HOP-92, in the assay on UACC-62, with TK-10, in the assay on UO-31 and with SK-MEL-2 was > 100 µM (inactive) in each case. The GI50 in the assay with NCI-H460, with SR, with IGROV-1, in the assay with SF-539, in the assay on NCI-H23 and in the assay on OVCAR-5 was > 100 µM (inactive) each time. The GI50 is > 100 µM (inactive) in the assay with HT-29; 58.9 µM (inactive) in the assay on HL-60; > 100 µM (inactive) with SNB-19; 77.8 µM (inactive) with MOLT-4; 68.5 µM (inactive) with RPMI-8226; > 100 µM (inactive) in the assay on CAKI-1. Moreover, the GI50 with SW-620 is > 100 µM (inactive).
As for `O=C(Cc1ccccc1)N/N=C(/c1nc2ccc([N+](=O)[O-])cc2nc1O)C(O)c1ccccc1Cl` (stereo not drawn), the GI50 with SK-OV-3, in the assay with HOP-92, in the assay with UACC-62, in the assay with TK-10, in the assay with UO-31 and with SK-MEL-2 was > 100 µM (inactive) each time. Besides, the GI50 with NCI-H460, in the assay with SR, in the assay on IGROV-1, in the assay on SF-539, in the assay with NCI-H23 and with OVCAR-5 was > 100 µM (inactive) in each case. Moreover, the GI50 was > 100 µM (inactive) with HT-29; > 100 µM (inactive) with HL-60; 70 µM (inactive) with MOLT-4; > 100 µM (inactive) with RPMI-8226; 46.6 µM (inactive) in the assay on CAKI-1; 89.9 µM (inactive) in the assay on SW-620.
Take `CC1=CC(=O)CC2(C)CCC(C(C)CC(=O)CC(C)C)CC12` (stereo not drawn): the GI50 is 31.4 µM (inactive) in the assay on HOP-92; 25.5 µM (inactive) with UACC-62; > 100 µM (inactive) with TK-10; 31.2 µM (inactive) in the assay on UO-31; 78.9 µM (inactive) with SK-MEL-2; 32.4 µM (inactive) with NCI-H460. For the same molecule, the GI50 is 20 µM (inactive) with SR; 26.2 µM (inactive) in the assay with IGROV-1; 16.4 µM (inactive) with SF-539; 35.4 µM (inactive) in the assay with NCI-H23; > 100 µM (inactive) in the assay on OVCAR-5; 25.8 µM (inactive) in the assay with HT-29. Also, the GI50 in the assay with HL-60 was 4.39 µM (inactive); in the assay with SNB-19, > 100 µM (inactive); in the assay with MOLT-4, 18.3 µM (inactive); in the assay on RPMI-8226, 20.2 µM (inactive); with CAKI-1 it was 16.4 µM (inactive); in the assay on SW-620, 22.7 µM (inactive).
As for `O=c1c2cc(I)ccc2nc(-c2cccs2)n1O`, the GI50 in the assay with HOP-92 was 28.1 µM (inactive); with UACC-62, 90.6 µM (inactive); with TK-10 it was 24.6 µM (inactive); with UO-31, 49 µM (inactive); in the assay on SK-MEL-2 it was 48.6 µM (inactive); in the assay on OVCAR-3, 15.6 µM (inactive). Moreover, the GI50 in the assay with NCI-H460 was 36.6 µM (inactive); in the assay on SR it was 33.8 µM (inactive); in the assay on IGROV-1 it was 30.5 µM (inactive); in the assay on SF-539 it was 44.6 µM (inactive); in the assay with NCI-H23, 24.2 µM (inactive); with OVCAR-5 it was 44.8 µM (inactive). Further, the GI50 in the assay with HT-29 is 48.6 µM (inactive); with HL-60, 34.3 µM (inactive); with SNB-19, 22.2 µM (inactive); with MOLT-4, 34.8 µM (inactive); in the assay with RPMI-8226, 27 µM (inactive); in the assay on CAKI-1, 28.8 µM (inactive). Further, the GI50 in the assay with SW-620 was 37 µM (inactive).

The values are drawn from ChEMBL document CHEMBL1201862, “PubChem BioAssay data set” (2004).
